Experimental data published in the OPERA property sets (Mansouri et al. 2018).

| Compound | boiling point [°C] | melting point [°C] | log10 Koc (L/kg) | ready biodegradability | log10 Henry constant (atm·m³/mol) | log10 vapour pressure (mmHg) | log10 biodegradation half-life (days) | log10 Koa |
| --- | --- | --- | --- | --- | --- | --- | --- | --- |
| c1ccc(-c2cnc(-c3ccccc3)o2)cc1 | 360 | 74 | – | – | – | – | – | – |
| OCc1cccc2ccccc12 | 304 | 64 | 2.17 | – | – | – | – | – |
| Sc1cccc2ccccc12 | 285 | – | – | not readily biodegradable | – | – | – | – |
| Cc1ccc(O)c(C)c1 | 211 | 24.5 | – | readily biodegradable | -6.02 | -0.991 | – | – |
| CCCCC(C)CCC (centres undefined) | 142 | -113 | – | – | – | 0.835 | 0.699 | – |
| O=[N+]([O-])c1ccc2ccc3cccc4ccc1c2c34 | – | 155 | – | – | – | – | – | – |
| c1cc2c3c(c1)CCCN3CCC2 | – | 40 | – | – | – | – | – | – |
| C[C@]12C[C@@H](O)[C@H]3[C@@H](CC[C@]4(O)C[C@@H](O)C[C@@H](O)[C@]34CO)[C@@]1(O)CC[C@@H]2C1=CC(=O)OC1 | – | 236 | – | – | – | – | – | – |
| CCN(CC)CC#N | 170 | – | – | – | – | – | – | – |
| CCOCCOC(=O)c1ccccc1C(=O)OCCOCC | 345 | 34 | – | – | – | – | – | – |
| O=[N+]([O-])c1cccc(CBr)c1 | – | 59.3 | – | – | – | – | – | – |
| Cc1ccc(S(=O)(=O)Cl)cc1 | – | 71 | – | readily biodegradable | – | – | – | – |
| CCOC(=O)c1ccccc1N | 268 | 13 | – | – | – | – | – | – |
| CCCC(C)C(C)(C)C (centres undefined) | 134 | – | – | – | – | 1.06 | – | – |
| NNC(=O)Nc1ccccc1 | – | 128 | – | – | – | – | – | – |
| CN(C)S(=O)N(C)C | 209 | 31 | – | – | – | – | – | – |
| O=S1(=O)CCN(CN2CCS(=O)(=O)NC2)CN1 | – | 156 | – | – | – | – | – | – |
| C=C(C)C(=O)OCC1CO1 (centres undefined) | – | – | – | readily biodegradable | – | – | – | – |
| OCc1ccc2ccccc2c1 | – | 81.3 | – | – | – | – | – | – |
| COC(=O)C(C)N(C(=O)c1ccco1)c1c(C)cccc1C (centres undefined) | – | 70 | – | – | – | -6.28 | – | – |
| O=C(Cl)CCCCl | 174 | – | – | – | – | – | – | – |
| Clc1cc(Cl)c2oc3c(Cl)c(Cl)c(Cl)cc3c2c1 | – | 219 | – | – | – | -8.73 | – | – |
| O=c1c(O)c(-c2ccccc2)oc2cc(O)cc(O)c12 | – | 214 | – | – | – | – | – | – |
| c1cnccn1 | 115 | 55 | – | readily biodegradable | – | 1.03 | – | – |
| Clc1ccc(C/C(=C\CN2CCCC2)c2ccccc2)cc1 | – | 48.5 | – | – | – | – | – | – |

| Compound | boiling point [°C] | melting point [°C] | log10 Koc (L/kg) | ready biodegradability | log10 Henry constant (atm·m³/mol) | log10 vapour pressure (mmHg) | log10 biodegradation half-life (days) | log10 Koa |
| --- | --- | --- | --- | --- | --- | --- | --- | --- |
| CC(/C=C/C=C(\C)C(=O)O[C@@H]1O[C@H](CO[C@@H]2O[C@H](CO)[C@@H](O)[C@H](O)[C@H]2O)[C@@H](O)[C@H](O)[C@H]1O)=C\C=C\C=C(C)\C=C\C=C(/C)C(=O)O[C@@H]1O[C@H](CO[C@@H]2O[C@H](CO)[C@@H](O)[C@H](O)[C@H]2O)[C@@H](O)[C@H](O)[C@H]1O | – | 186 | – | – | – | – | – | – |
| C=CC1CCCCC1 | 128 | – | – | – | – | – | – | – |
| CCCC(C)Cl (centres undefined) | 99 | -80 | – | – | – | 1.69 | – | – |
| C=CC[C@@H](C)CC | 86.7 | -142 | – | – | – | 1.87 | – | – |
| Cc1cccc(C)c1[N+](=O)[O-] | 226 | 15 | – | – | – | – | – | – |
| C=CCNCCC | 112 | – | – | – | – | – | – | – |
| Oc1ccc(O)c(-c2ccccc2)c1 | – | 102 | – | – | – | – | – | – |
| Cc1ccc(NC(=O)N(C)C)cc1Cl | – | 148 | 2.02 | not readily biodegradable | – | -7.44 | – | – |
| CCc1cnc(C2=NC(C)(C(C)C)C(=O)N2)c(C(=O)O)c1 (centres undefined) | – | 171 | 0.85 | – | – | – | – | – |
| c1ccc(COc2ccccc2)cc1 | 286 | 40 | – | – | – | -2.2 | – | – |
| Cc1ccc(S(=O)(=O)c2coc(S(N)(=O)=O)c2)cc1 | – | 185 | – | – | – | – | – | – |
| COC(=O)Nc1cccc(Cl)c1 | – | – | 2.15 | – | – | – | – | – |
| Cc1ccccc1N1C(=O)c2cc(S(N)(=O)=O)c(Cl)cc2NC1C (centres undefined) | – | 256 | – | – | – | – | – | – |
| CCOC(=O)NC(N)=O | – | 196 | – | – | – | – | – | – |
| CC12CCC(CC1)C2(C)C | 161 | 158 | – | – | – | – | – | – |
| COC(=O)c1ccccc1CS(=O)(=O)NC(=O)Nc1nc(OC)cc(OC)n1 | – | 187 | 2.5 | – | – | -13.7 | – | – |
| CCCCCCCC(=O)Oc1c(Br)cc(C#N)cc1Br | – | 45.5 | 4 | readily biodegradable | – | -5.32 | – | – |
| c1ccc(P(c2ccccc2)c2ccccc2)cc1 | – | 80 | – | – | – | – | – | – |
| CCCN(CCOc1c(Cl)cc(Cl)cc1Cl)C(=O)n1ccnc1 | – | 48 | 2.7 | – | – | -5.95 | – | – |
| O=C(O)c1ccc[nH]1 | – | – | – | – | – | -5.65 | – | – |
| CNc1ccc(N)cc1 | 258 | 36 | – | – | – | – | – | – |
| NCCS | – | 98 | – | – | – | – | – | – |
| C=C(C)C(=O)OCCCC | 160 | -75 | – | readily biodegradable | – | 0.326 | – | – |
| O=C1OC2(OC=C(c3ccccc3)C2=O)c2ccccc21 (centres undefined) | – | 154 | – | – | – | – | – | – |
| C/C=C(/C(=C/C)c1ccc(O)cc1)c1ccc(O)cc1 | – | 228 | – | – | – | – | – | – |

| Compound | boiling point [°C] | melting point [°C] | log10 Koc (L/kg) | ready biodegradability | log10 Henry constant (atm·m³/mol) | log10 vapour pressure (mmHg) | log10 biodegradation half-life (days) | log10 Koa |
| --- | --- | --- | --- | --- | --- | --- | --- | --- |
| OCc1cccc(O)c1 | – | 73 | – | – | – | – | – | – |
| O=C(Nc1ccc(Cl)cc1)c1cc(Cl)cc(Cl)c1O | – | 142 | – | – | – | – | – | – |
| O=C(O)c1cnccn1 | – | – | – | readily biodegradable | – | – | – | – |
| BrC[C@@H]1CCCO1 | 170 | – | – | – | – | – | – | – |
| CCN(Cc1ccncc1)C(=O)C(CO)c1ccccc1 (centres undefined) | – | 96.5 | – | – | – | – | – | – |
| Brc1ccc2[nH]ccc2c1 | – | 91 | – | – | – | – | – | – |
| CN(C)CC/C=C1\c2ccccc2Sc2ccc(Cl)cc21 | – | 97.5 | – | – | – | – | – | – |
| CCCCOc1ccc(C(=O)O)cc1 | – | 148 | – | – | – | – | – | – |
| Cn1ccnc1 | 196 | -6 | – | – | – | – | – | – |
| O=[N+]([O-])c1c(F)cc(F)cc1F | 184 | 3.5 | – | – | – | – | – | – |
| C[C@H]1CC=CCC1 | 103 | -116 | – | – | – | – | – | – |
| c1ccc2c(c1)Cc1ccccc1S2 | 341 | 128 | – | – | – | – | – | – |
| CC#CCCC | 84.5 | -89.6 | – | – | – | – | – | – |
| CCCc1ccc(O)cc1 | 233 | 22 | – | – | -5.94 | -1.43 | – | – |
| Clc1cccc(-c2c(Cl)ccc(Cl)c2Cl)c1Cl | – | – | – | – | – | – | – | 8.8 |
| N#Cc1ccc(F)cc1 | 189 | 34.8 | – | – | – | – | – | – |
| C(#Cc1ccccc1)c1ccccc1 | 300 | 62.5 | – | – | – | -2.64 | – | – |
| CC(C)N(CCC(C(N)=O)(c1ccccc1)c1ccccn1)C(C)C (centres undefined) | – | 94.8 | – | – | – | – | – | – |
| Cc1ccc2ccccc2n1 | 246 | -1.5 | – | – | – | -2.02 | – | – |
| c1ccc(CCc2ccccn2)cc1 | 289 | -3 | – | – | – | – | – | – |
| CCC(N)CC | 89 | – | – | – | – | – | – | – |
| CCN(CC)C(=O)C(C)Oc1cccc2ccccc12 (centres undefined) | – | 75 | 2.76 | – | – | -6.76 | – | – |
| C=CCC(=O)O | 169 | -35 | – | – | – | – | – | – |
| C=C(C)c1ccc(C(=C)C)cc1 | – | 63.5 | – | – | – | – | – | – |
| CN1C(=O)C(=O)c2ccccc21 | – | 132 | – | – | – | – | – | – |

| Compound | boiling point [°C] | melting point [°C] | log10 Koc (L/kg) | ready biodegradability | log10 Henry constant (atm·m³/mol) | log10 vapour pressure (mmHg) | log10 biodegradation half-life (days) | log10 Koa |
| --- | --- | --- | --- | --- | --- | --- | --- | --- |
| CN(C)[Si](C)(C)C | 86 | – | – | – | – | – | – | – |
| CCCCC(=O)OC | 127 | – | – | – | -3.5 | 1.28 | – | – |
| FC(F)(F)C(F)(F)C(F)(F)C(F)(F)C(F)(F)C(F)(F)C(F)(F)C(F)(F)C(F)(F)F | 123 | -16 | – | – | – | – | – | – |
| FC(F)(F)C(F)(F)C(F)(F)C(F)(F)C(F)(F)C(F)(F)C(F)(F)I | 138 | – | – | – | – | – | – | – |
| CCSc1nc(NC(C)C)nc(NC(C)C)n1 | – | 105 | 3.07 | – | – | -5.8 | – | – |
| CC(CN1c2ccccc2Sc2ccccc21)N(C)C (centres undefined) | – | 60 | – | – | – | – | – | – |
| ClCCCI | 171 | – | – | – | – | – | – | – |
| Cc1cc(-c2cc(C)c(O)c(C)c2)cc(C)c1O | – | 222 | – | – | – | – | – | – |
| COC1=C[C@@H]2[C@@H]3Cc4ccc(OC)c(O)c4[C@]2(CCN3C)CC1=O | – | 162 | – | – | – | – | – | – |
| C1CCC(C(C2CCCCC2)C2CCCCC2)CC1 | 326 | 48 | – | – | – | – | – | – |
| Cc1cc(C)c(C)c(C)n1 | 203 | – | – | – | – | – | – | – |
| Sc1ccc2ccccc2c1 | 288 | 81 | – | not readily biodegradable | – | – | – | – |
| CC/C=C\CCO | – | – | – | readily biodegradable | – | – | – | – |
| O=C[O-].[K+] | – | 167 | – | – | – | – | – | – |
| C[C@H]1O[C@@H](n2cc(F)c(=O)[nH]c2=O)[C@H](O)[C@@H]1O | – | 190 | – | – | – | – | – | – |
| Cc1cc(O)c(C)c(O)c1 | 278 | 163 | – | – | – | – | – | – |
| CCC(Cl)Cl | 88.1 | – | – | – | – | 1.83 | – | – |
| c1cnc(N2CCN(Cc3ccc4c(c3)OCO4)CC2)nc1 | – | 98 | – | – | – | – | – | – |
| CCCCCCCCCCCCCCCCCCCCCCCCCCCCCCCCCCCCCC | 512 | – | – | readily biodegradable | – | – | – | – |
| CCCOc1ccc(O)cc1 | – | 56.5 | – | – | – | – | – | – |
| O=[N+]([O-])c1ccc(CCc2ccc([N+](=O)[O-])cc2)cc1 | – | 181 | – | – | – | – | – | – |
| O=CC=Cc1ccc([N+](=O)[O-])cc1 | – | 142 | – | – | – | – | – | – |
